In patent US20020137655A1, “Use of haloperoxidase, peroxide and carboxylic acid” (Novozymes A/S, priority 2000, published 2002):

System: Escherichia coli (DSM 1576)
Test: Antibacterial activity of haloperoxidase, hydrogen peroxide and a buffer compound against Escherichia coli cells (conductance measurement, Malthus)
Assay type: cell-based
Details: for Log CFU/ml (reduction in number of living bacterial cells): buffer 50 mM, 40° C., 20 minutes, approx. 10^6 CFU/ml; for bactericidal activity: carboxylic acid as buffer with haloperoxidase and hydrogen peroxide (Table 1), log CFU/ml reduction of more than 6 units corresponds to 100%
Experimental: Antimicrobial activity may be measured in terms of the number of log reductions. The term “log reduction” is defined as a logarithmic reduction of the number of living cells, e.g. 1 log reduction corresponds to a reduction in living cell number of Escherichia coli DSM1576 or Enterococcus faecalis DSM2570 from Y×10^X CFU/M (CFU: […] The number of living bacteria are to be determined as the number of E. coli or E. faecalis, respectively, which can grow on Tryptone Soya Agar plates at 30° C. The antibacterial activity of a system composed of a haloperoxidase and hydrogen peroxide were tested in a variety of buffers (including both carboxylic acids and other buffer compounds) and pH against Escherichia coli (DSM 1576). The E. coli cells were grown in Brain Heart Infusion broth (BHI) until stationary growth phase (30° C., 20 hours). […] Subsequently the solution was incubated in a 96-well MicroWell plate (Nunc A/S, Denmark) at 40° C. in 20 minutes. […] The detection times measured by the Malthus instrument were converted to CFU/ml by a calibration curve.

[1] = pH 6, rCvP 0.5 mg/L, H2O2 0.5 mM
[2] = pH 7, rCvP 0.1 mg/L, H2O2 0.25 mM
[3] = pH 5, rCvP 0.5 mg/L, H2O2 0.5 mM

Compound | Log CFU/ml (reduction in number of living bacterial cells) [1] | Log CFU/ml (reduction in number of living bacterial cells) [2] | bactericidal activity | Log CFU/ml (reduction in number of living bacterial cells) [3] | Log CFU/ml (reduction in number of living bacterial cells) (pH 8, rCvP 1 mg/L, H2O2 1 mM)
CC(C)(CC(=O)O)CC(=O)O [Dimethylglutaric acid (DMG), Dimethylglutaric acid] | 6.7 Log CFU/ml | 7.3 Log CFU/ml | 100% |  | 
CC(=O)O [Acetic acid] |  |  | 100% | 6.0 Log CFU/ml | 
O=S(=O)(O)CCN1CCOCC1 [2-(N-morpholino) ethanesulfonic acid] | 0.6 Log CFU/ml |  |  |  | 
Tris(hydroxymethyl)amino-methane [Tris(hydroxymethyl)amino-methane (TRIS)] |  | 0.3 Log CFU/ml |  |  | 0.5 Log CFU/ml
O=C(O)CC(O)(CC(=O)O)C(=O)O [Citric acid] |  |  | 100% | 6.4 Log CFU/ml | 
O=S(=O)(O)CCN1CCN(CCO)CC1 [HEPES] |  | 0.7 Log CFU/ml |  |  | 0.6 Log CFU/ml
O=P([O-])(O)O.[K+] [KH2PO4] |  | 0.3 Log CFU/ml |  |  | 0.4 Log CFU/ml
